pIC50: −log10 of the molar value.
Target: T1, recombinant autotaxin (Homo sapiens, UniProt Q13822)
T1 construct: made in house; host or cells: Hi5 insect cells (baculovirus)
Test: Autotaxin assay (Amplex Red, LPC substrate)
Format: biochemical
Details: 75 μM LPC, Amplex Red fluorescence, ten 1:3 dilutions starting at 30 μM
Description: Autotaxin activity is measured indirectly by means of Amplex Red Reagent. In this course, Amplex Red is measured as fluorogenic indicator for generated H2O2. Autotaxin converts substrate lysophosphatidylcholine (LPC) to phosphocholine and lysophosphatidylic acid (LPA). After the conversion phosphocholine is reacted with alkaline phosphatase to obtain inorganic phosphate and choline. During the next step choline is oxidized with choline oxidase to yield betaine, whereby H2O2 is generated. H2O2 reacts with Amplex Red Reagent in the presence of peroxidase (Horseradish peroxidase) in an 1:1 stochiometry and yields highly fluorescent resorufin. The generated fluorescence is measured in a reaction-dependent kinetic mode in order to enable subtraction of fluorescence signals of possible other fluorescent compounds that are not part of the reaction from total measured fluorescence.
1.5 μl of a standard solution or of the compounds of the invention are dissolved in 20 mM Hepes pH 7.2 with maximally 7.7% DMSO in individual concentrations. The resulting solution is pre-incubated together with 10 μl (16 ng) of highly purified recombinant autotaxin in a black 384-hole microtiter plate for 30 min at 22° C. Thereafter, the reaction is started through the addition of 5 μL-a-lysophosphatidylcholine (LPC), whereby the final concentration of LPC is 75 μM. The mixture is incubated for 90 min. at 37° C. After the incubation Amplex Red Reagent, peroxidase (Horseradish peroxidase) and choline oxidase are added. The fluorescence is immediately measured at a wavelength of 612 nm with an excitation wavelength of 485 nm in a “Tecan Ultra multimode” fluorescence reader. The activity of autotaxin is indirectly calculated via the amount of detected generated H2O2.
For IC50 analysis, ten serial 1:3 dilutions starting at 30 μM for each compound were run in duplicates.
IC50 values were calculated on normalized data. For normalization, control wells were added to each assay plate and the signal of uninhibited control wells was set to 100%, whereas the signal inhibited by 500 μM C14 LPA, (Avanti Polar Lipids, Cat# 857120P) was set to 0%. Curves were fitted and IC50 values calculated by the following model using proprietary analysis software: Y=Bottom+(100−Bottom)/(1+10^((LogIC50−X)*HillSlope))
Where X is the logarithm of concentration. Y is the response; Y starts at Bottom and goes to Top with a sigmoid shape.
Protein: Recombinant autotaxin (baculoviral Hi5 expression)
Substrate: L-a-lysophosphatidyl choline (chicken egg); Avanti Polar Lipids #830071 P
Standard: C14 LPA, Avanti Polar Lipids, Cat# 857120P
Detection Reagent Amplex Red Reagent; Invitrogen #A12222; dissolved in 1.923 ml of DMSO peroxidase Type VI-A (horseradish), Sigma #P6782; dissolved in 7.45 ml of test buffer, Choline Oxidase; Sigma #C5896; dissolved in 2.47 ml test buffer
Detection Reagent Mix: 1:100 dilution of Amplex Red Regent in test buffer
Test buffer: 200 mM Tris-HCl, Merck, Cat # 1.08219, pH 7.9; 0.1% BSA, lipid free, Roche Cat#775835

| Compound | pIC50 |
| --- | --- |
| COc1ccc(Nc2nccc3nc(NCc4ccc(Cl)cc4)ncc23)cc1 [Compound 44, N2-(4-Chloro-benzyl)-N5-(4-methoxy-phenyl)-pyrido[4,3-d]pyrimidine-2,5-diamine] | > 4.52 |
| CN(C)C(=O)CCC(=O)N1CCN(c2nccc3nc(NCc4ccccc4Cl)ncc23)CC1 [Compound 125, 4-{4-[2-(2-Chloro-benzylamino)-pyrido[4,3-d]pyrimidin-5-yl]-piperazin-1-yl}-N,N-dimethyl-4-oxo-butyramide] | > 4.52 |
| CCCNC(=O)C1CCN(c2nccc3nc(NCc4ccccc4Cl)ncc23)CC1 [Compound 68, 1-[2-(2-Chloro-benzylamino)-pyrido[4,3-d]pyrimidin-5-yl]-piperidine-4-carboxylic acid propylamide] | > 5.00 |
| Fc1ccc(Nc2nccc3nc(NCc4ccc(Cl)cc4)ncc23)cc1F [Compound 48, N2-(4-Chloro-benzyl)-N5-(3,4-difluoro-phenyl)-pyrido[4,3-d]pyrimidine-2,5-diamine] | > 4.52 |
| CCOC(=O)CCNC(=O)C1CCN(c2nccc3nc(NCc4ccccc4Cl)ncc23)CC1 [Compound 101, 3-({1-[2-(2-Chloro-benzylamino)-pyrido[4,3-d]pyrimidin-5-yl]-piperidine-4-carbonyl}-amino)-propionic acid ethyl ester] | > 4.52 |
| Fc1ccc(Nc2nccc3nc(NCc4ccccc4)ncc23)cc1 [Compound 2, N2-Benzyl-N5-(4-fluoro-phenyl)-pyrido[4,3-d]pyrimidine-2,5-diamine] | > 4.52 |
| N#CCC(=O)N1CCN(c2nccc3nc(NCc4ccccc4Cl)ncc23)CC1 [Compound 128, 3-{4-[2-(2-Chloro-benzylamino)-pyrido[4,3-d]pyrimidin-5-yl]-piperazin-1-yl}-3-oxo-propionitrile] | > 4.52 |
| CCCN1CCN(C(=O)C2CCN(c3nccc4nc(NCc5ccccc5Cl)ncc34)CC2)CC1 [Compound 97, {1-[2-(2-Chloro-benzylamino)-pyrido[4,3-d]pyrimidin-5-yl]-piperidin-4-yl}-(4-propyl-piperazin-1-yl)-methanone] | > 5.00 |
| O=C(Nc1cccnc1)C1CCN(c2nccc3nc(NCc4ccc(Cl)cc4)ncc23)CC1 [Compound 78, 1-[2-(4-Chloro-benzylamino)-pyrido[4,3-d]pyrimidin-5-yl]-piperidine-4-carboxylic acid pyridin-3-ylamide] | > 5.30 |
| CCN(CC)CCCNC(=O)C1CCN(c2nccc3nc(NCc4ccccc4Cl)ncc23)CC1 [Compound 63, 1-[2-(2-Chloro-benzylamino)-pyrido[4,3-d]pyrimidin-5-yl]-piperidine-4-carboxylic acid (3-diethylamino-propyl)-amide] | > 5.00 |
| CCN1CCN(C(=O)C2CCCN(c3nccc4nc(NCc5ccccc5Cl)ncc34)C2)CC1 (stereo not drawn) [Compound 89, {1-[2-(2-Chloro-benzylamino)-pyrido[4,3-d]pyrimidin-5-yl]-piperidin-3-yl}-(4-ethyl-piperazin-1-yl)-methanone] | > 5.30 |
| Fc1ccc(CNc2ncc3c(Nc4ccc(F)cc4)nccc3n2)cc1 [Compound 21, N2-(4-Fluoro-benzyl)-N5-(4-fluoro-phenyl)-pyrido[4,3-d]pyrimidine-2,5-diamine] | > 4.52 |
| O=C(C1CCN(c2nccc3nc(NCc4ccc(Cl)cc4)ncc23)CC1)N1CCCC1 [Compound 80, {1-[2-(4-Chloro-benzylamino)-pyrido[4,3-d]pyrimidin-5-yl]-piperidin-4-yl}-pyrrolidin-1-yl-methanone] | > 5.30 |
| COc1ccc(Nc2nccc3nc(NCc4ccccc4OC)ncc23)c(OC)c1 [Compound 40, N5-(2,4-Dimethoxy-phenyl)-N2-(2-methoxy-benzyl)-pyrido[4,3-d]pyrimidine-2,5-diamine] | > 4.52 |
| Fc1ccc(CNc2ncc3c(N4CCCC4)nccc3n2)cc1 [Compound 20, (4-Fluoro-benzyl)-(5-pyrrolidin-1-yl-pyrido[4,3-d]pyrimidin-2-yl)-amine] | > 4.52 |
| N[C@H]1CCN(CC(=O)N2CCN(c3nccc4nc(NCc5ccccc5Cl)ncc34)CC2)C1=O [Compound 133, (S)-3-Amino-1-(2-{4-[2-(2-chloro-benzylamino)-pyrido[4,3-d]pyrimidin-5-yl]-piperazin-1-yl}-2-oxo-ethyl)-pyrrolidin-2-one] | > 4.52 |
| CC(C)NC(=O)C1CCN(c2nccc3nc(NCc4ccccc4)ncc23)CC1 [Compound 61, 1-(2-Benzylamino-pyrido[4,3-d]pyrimidin-5-yl)-piperidine-4-carboxylic acid isopropylamide] | > 4.52 |
| Clc1ccccc1CNc1ncc2c(N3CCN(c4ncccn4)CC3)nccc2n1 [Compound 112, (2-Chloro-benzyl)-[5-(4-pyrimidin-2-yl-piperazin-1-yl)-pyrido[4,3-d]pyrimidin-2-yl]-amine] | > 4.52 |
| Clc1ccccc1CNc1ncc2c(NCc3cccnc3)nccc2n1 [Compound 11, N2-(2-Chloro-benzyl)-N5-pyridin-3-ylmethyl-pyrido[4,3-d]pyrimidine-2,5-diamine] | > 4.52 |
| O=C(C1CCN(c2nccc3nc(NCc4ccccc4Cl)ncc23)CC1)N1CCC[C@H]1CN1CCCC1 [Compound 142, {1-[2-(2-Chloro-benzylamino)-pyrido[4,3-d]pyrimidin-5-yl]-piperidin-4-yl}-((S)-2-pyrrolidin-1-ylmethyl-pyrrolidin-1-yl)-methanone] | > 4.52 |
| Fc1ccc(CNc2ncc3c(Nc4ccc(F)cc4F)nccc3n2)cc1 [Compound 25, N5-(2,4-Difluoro-phenyl)-N2-(4-fluoro-benzyl)-pyrido[4,3-d]pyrimidine-2,5-diamine] | > 4.52 |
| COc1ccc(Nc2nccc3nc(NCc4ccc(F)cc4)ncc23)cc1OC [Compound 27, N5-(3,4-Dimethoxy-phenyl)-N2-(4-fluoro-benzyl)-pyrido[4,3-d]pyrimidine-2,5-diamine] | > 4.52 |
| COCCCNC(=O)C1CCCN(c2nccc3nc(NCc4ccccc4Cl)ncc23)C1 (stereo not drawn) [Compound 90, 1-[2-(2-Chloro-benzylamino)-pyrido[4,3-d]pyrimidin-5-yl]-piperidine-3-carboxylic acid (3-methoxy-propyl)-amide] | > 4.52 |
| Cc1cc(F)ccc1Nc1nccc2nc(NCc3ccc(Cl)cc3)ncc12 [Compound 49, N2-(4-Chloro-benzyl)-N5-(4-fluoro-2-methyl-phenyl)-pyrido[4,3-d]pyrimidine-2,5-diamine] | > 4.52 |
| C=CCNC(=O)C1CCN(c2nccc3nc(NCc4ccccc4Cl)ncc23)CC1 [Compound 71, 1-[2-(2-Chloro-benzylamino)-pyrido[4,3-d]pyrimidin-5-yl]-piperidine-4-carboxylic acid allylamide] | > 4.52 |
| O=C(NCc1ccco1)C1CCN(c2nccc3nc(NCc4ccc(Cl)cc4)ncc23)CC1 [Compound 79, 1-[2-(4-Chloro-benzylamino)-pyrido[4,3-d]pyrimidin-5-yl]-piperidine-4-carboxylic acid (furan-2-ylmethyl)-amide] | > 4.52 |
| CCOc1ccccc1Nc1nccc2nc(NCc3ccccc3OC)ncc12 [Compound 32, N5-(2-Ethoxy-phenyl)-N2-(2-methoxy-benzyl)-pyrido[4,3-d]pyrimidine-2,5-diamine] | > 4.52 |
| Cc1ccc(CNc2ncc3c(N4CCCC(C(=O)Nc5cccnc5)C4)nccc3n2)cc1 (stereo not drawn) [Compound 93, 1-[2-(4-Methyl-benzylamino)-pyrido[4,3-d]pyrimidin-5-yl]-piperidine-3-carboxylic acid pyridin-3-ylamide] | > 4.52 |
| CCOC(=O)CCNC(=O)C1CCCN(c2nccc3nc(NCc4ccccc4Cl)ncc23)C1 (stereo not drawn) [Compound 92, 3-({1-[2-(2-Chloro-benzylamino)-pyrido[4,3-d]pyrimidin-5-yl]-piperidine-3-carbonyl}-amino)-propionic acid ethyl ester] | > 5.00 |
| O=C(N1CCOCC1)N1CCN(c2nccc3nc(NCc4ccccc4Cl)ncc23)CC1 [Compound 116, {4-[2-(2-Chloro-benzylamino)-pyrido[4,3-d]pyrimidin-5-yl]-piperazin-1-yl}-morpholin-4-yl-methanone] | > 5.30 |
